Holding throughout (assay type): biochemical
One assay addresses T1, human plasma kallikrein (Homo sapiens, UniProt P03952).
T1 construct: purchased Kabi Co
Briefly: Assay for inhibitory activity against kallikrein (synthetic substrate S-2302). The settings on record: Table 3, compounds of the invention; S-2302, pH 8.0, 37° C.; read-out: Kallikrein. The source says: (§1) As synthetic substrate used to examine the activity of the inhibitor for inhibiting substrate decomposition with the enzyme, there were used PS-994 (H-D-Lys(Tos)-Phe-Lys-CHA.2HCl, manufactured by Nitto Boseki Co., Ltd.) for plasmin, PS-915 (H-D-Phe-Pro-Arg-CHA.2HCl, manufactured by Nitto Boseki Co., Ltd.) for thrombin and trypsin, PS-2000 (Z-D-Lys(HCO)-Gly-Arg-CHA.HCl, manufactured by Nitto Boseki Co., Ltd.) for factor Xa, S-2302 (H-D-Pro-Phe-Arg-pNA, manufactured by Kabi Co.) for kallikrein, and MUK-34: [drawing 5] for urokinase.
(§2) As plasmin, thrombin, trypsin, factor Xa, kallikrein and urokinase, there were used 0.3 CU/ml of Sankyo Color Test α2 -PI Assay Kit Standard, 1.2 NIH U/ml of Sankyo Color Test ATIII Assay Kit, 2 μg/ml of Code 3703 manufactured by Worsingstone Co., 0.25 U/ml of human factor Xa manufactured by Boehringer Mannheim, 0.12 U/ml of human plasma kallikrein manufactured by Kabi Co., and 1000 U/ml of Mochida Pharmaceutical Urokinase 60,000 (60,000 U/vial), respectively. In the case of CHA type substrate, a color-forming termination solution for Sankyo Color Test Kit was used. Enzyme reactions were carried out at 37° C.
Assay For Inhibitory Activity Against Kallikrein
To 0.4 ml of buffer (150 mN sodium chloride aqueous solution containing 50 mM Tris, pH 8.0) was added 0.1 ml each of aqueous solutions of the inhibitor having various concentrations and the mixture was heated for 5 minutes. Then, 0.1 ml of kallikrein solution (containing 0.5% bovine serum albumin, No. A-8022 of Sigma Co.) was added thereto, and the mixture was reacted for 5 minutes. Furthermore, 10 mM S-2302 aqueous solution (0.1 ml) was added thereto, and the mixture was again reacted for 5 minutes. Then, 5 ml of 20% acetic acid aqueous solution was added to terminate the reaction. Absorbance was measured at 405 nm and IC50 was determined by the method described above.

A further assay addresses T2, trypsin (Bos taurus, UniProt P00760).
T2 construct: purchased Worsingstone Co. (so in the source)
T2 sequence (P00760 24-246): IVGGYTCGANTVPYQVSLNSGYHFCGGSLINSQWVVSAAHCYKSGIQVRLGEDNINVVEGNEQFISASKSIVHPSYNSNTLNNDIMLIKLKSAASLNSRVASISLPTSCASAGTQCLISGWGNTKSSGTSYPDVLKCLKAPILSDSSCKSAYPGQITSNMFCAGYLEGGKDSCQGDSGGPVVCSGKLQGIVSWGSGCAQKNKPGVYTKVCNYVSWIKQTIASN
Description: Assay for inhibitory activity against trypsin (synthetic substrate PS-915). The settings on record: Table 3, compounds of the invention; PS-915, pH 8.0, 37° C.; read-out: Trypsin.
Description: as §1, §2
Assay For Inhibitory Activity Against Trypsin
After 0.1 ml of an aqueous solution of the inhibitor was added to 0.5 ml of buffer (150 mM sodium chloride aqueous solution containing 150 mM Tris, pH 8.0) and the mixture was heated for 5 minutes, 0.1 ml of trypsin solution was added thereto. The mixture was reacted for 5 minutes. Furthermore, 0.1 ml of PS-915 solution (10 mM) was added thereto. The mixture was again reacted for 5 minutes. Then, 2 ml of the color-forming termination solution [containing 2.5 mg/ml of soybean trypsin inhibitor (manufactured by Sigma Co., No. T-9003)] was added to the reaction mixture. Then the mixture was allowed to stand for 10 minutes and absorbance was measured at 700 nm. IC50 was determined by the method described above.

Another assay addresses T3, plasmin (Homo sapiens, UniProt P00747).
T3 construct: purchased Sankyo (Sankyo Color Test α2 -PI Assay Kit Standard)
Briefly: Assay for inhibitory activity against plasmin (synthetic substrate PS-994). Conditions: Table 3, compounds of the invention; PS-994, pH 7.8, 37° C.; read-out: Plasmin.
Description: as §1, §2
Assay For Inhibitory Activity Against Plasmin
Each aqueous solution (0.1 ml) of the inhibitor having various concentrations was added to 0.4 ml of buffer (150 mM sodium chloride aqueous solution containing 100 mM Tris, pH 7.8) and the mixture was heated for 5 minutes. After 0.2 ml of the plasmin solution was added thereto, the mixture was reacted for 5 minutes. After 0.1 ml of PS-994 solution (10 mM) was added thereto, and the mixture was again reacted for 5 minutes. Then, 2.0 ml of the color-forming termination solution was added to the reaction mixture. Then the mixture was allowed to stand for 10 minutes and absorbance was measured at 700 nm. A concentration of the inhibitor in the reaction system showing 1/2 absorbance that of the case where no inhibitor was present was determined to be IC50.

The next assay addresses T4, human factor Xa (Homo sapiens, UniProt P00742).
T4 construct: purchased Boehringer Mannheim
Description: Assay for inhibitory activity against factor Xa (synthetic substrate PS-2000). Conditions: Table 3, compounds of the invention; PS-2000, pH 8.5, 37° C.; read-out: Factor.
Description: as §1, §2
Assay For Inhibitory Activity Against Factor Xa
To 0.3 ml of buffer (150 mM sodium chloride aqueous solution containing 50 mM Tris, pH 8.5) was added 0.1 ml each of an aqueous solution of the inhibitor having various concentrations. The mixture was heated for 5 minutes. Then, 0.1 ml of factor Xa solution (150 mM solution chloride aqueous solution containing 50 mM Tris and 20 mM calcium chloride, pH 8.5) was added thereto, and the mixture was reacted for 5 minutes. Furthermore,5% polyvinylpyrrolidone solution (0.1 ml) containing 10 mM PS-2000 was added thereto, and the mixture was again reacted for 5 minutes. Then, 2 ml of the color-forming termination solution was added to the reaction mixture. Then the mixture was allowed to stand for 10 minutes and absorbance was measured at 700 nm. IC50 was determined by the method described above.

For the next assay, the target named is T5, urokinase (Homo sapiens, UniProt P00749).
T5 construct: purchased Mochida Pharmaceutical Urokinase 60,000 (60,000 U/vial)
Description: Assay for inhibitory activity against urokinase (synthetic substrate MUK-34). The settings on record: Table 3, compounds of the invention; MUK-34, pH 8.20, 37° C.; read-out: Urokinase.
Description: as §1, §2
Assay For Inhibitory Activity Against Urokinase
An aqueous solution (0.1 ml) of […] the inhibitor was added to 0.3 ml of buffer (150 mM sodium chloride aqueous solution containing 50 mM Tris, pH 8.20) and the mixture was heated for 5 minutes. Thereafter 0.1 ml of urokinase solution (containing 50 mM Tris, 150 mM sodium chloride aqueous solution and 0.1% BSA, pH 8.20) was added thereto, and the mixture was reacted for 5 minutes. Furthermore, 10 mM MUK-34 aqueous solution (0.1 ml) was added thereto, and the mixture was reacted for 5 minutes. Then 10% acetic acid aqueous solution (2.0 ml) was added to the mixture to terminate the reaction. Absorbance was measured at 405 nm and IC50 was determined by the method described above.

The next assay has as its target T6, thrombin (Homo sapiens, UniProt P00734).
T6 construct: purchased Sankyo (Sankyo Color Test ATIII Assay Kit)
Description: Assay for inhibitory activity against thrombin (synthetic substrate PS-915). The settings on record: Table 3, compounds of the invention; PS-915, pH 8.5, 37° C.; read-out: Thrombin.
Description: as §1, §2
Assay For Inhibitory Activity Against Thrombin
Each aqueous solution (0.1 ml) of the inhibitor having various concentrations was added to 0.4 ml of buffer (150 mM sodium chloride aqueous solution containing 150 mM Tris, pH 8.5) and the mixture was heated for 5 minutes. Then, 0.2 ml of the thrombin solution was added thereto and the mixture was reacted for 5 minutes. After 0.1 ml of PS-915 solution (10 mM) was added thereto, the mixture was again reacted for 5 minutes. Then, 2 ml of the color-forming termination solution was added to the reaction mixture. Then the mixture was allowed to stand for 10 minutes and absorbance was measured at 700 nm. IC50 was determined by the method described above.

Structures can show the parent of a compound that is named as a salt. Where a SMILES comes first, the peptide text is derived from it. [ ]: non-standard residue; d: D form. The star is where a group is joined. PhAc = O=C(Cc1ccccc1)*

T4 sequence (P00742 235-488 limits assumed): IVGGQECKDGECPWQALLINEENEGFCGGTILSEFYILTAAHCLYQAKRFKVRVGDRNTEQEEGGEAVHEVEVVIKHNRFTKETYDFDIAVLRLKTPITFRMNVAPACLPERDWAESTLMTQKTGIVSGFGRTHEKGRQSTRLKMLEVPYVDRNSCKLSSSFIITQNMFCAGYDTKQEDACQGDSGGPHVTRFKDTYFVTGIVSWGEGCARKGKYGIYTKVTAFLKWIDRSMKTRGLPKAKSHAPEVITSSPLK
T4 sequence (P00742 41-179 partner limits assumed): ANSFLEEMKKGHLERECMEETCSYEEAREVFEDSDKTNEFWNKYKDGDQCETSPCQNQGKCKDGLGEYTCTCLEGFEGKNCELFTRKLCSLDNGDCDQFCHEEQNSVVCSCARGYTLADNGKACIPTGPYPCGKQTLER
T1 sequence (P03952 20-638): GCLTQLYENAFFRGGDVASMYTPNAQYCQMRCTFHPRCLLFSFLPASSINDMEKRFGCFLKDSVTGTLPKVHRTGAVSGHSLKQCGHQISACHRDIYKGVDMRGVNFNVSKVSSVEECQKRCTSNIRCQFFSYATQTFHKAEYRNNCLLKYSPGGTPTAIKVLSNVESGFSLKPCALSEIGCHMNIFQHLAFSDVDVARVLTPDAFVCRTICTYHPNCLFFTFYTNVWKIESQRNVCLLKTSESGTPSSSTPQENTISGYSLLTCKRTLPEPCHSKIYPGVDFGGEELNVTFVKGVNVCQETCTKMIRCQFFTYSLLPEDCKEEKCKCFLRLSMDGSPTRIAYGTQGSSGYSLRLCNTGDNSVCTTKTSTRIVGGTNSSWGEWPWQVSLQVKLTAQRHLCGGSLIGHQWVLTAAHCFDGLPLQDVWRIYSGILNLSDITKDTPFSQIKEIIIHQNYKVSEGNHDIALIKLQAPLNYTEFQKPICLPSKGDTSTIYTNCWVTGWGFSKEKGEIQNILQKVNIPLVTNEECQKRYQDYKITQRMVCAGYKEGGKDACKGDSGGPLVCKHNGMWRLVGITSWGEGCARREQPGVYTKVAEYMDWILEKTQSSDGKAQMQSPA
T3 sequence (P00747 581-810 limits assumed, species assumed): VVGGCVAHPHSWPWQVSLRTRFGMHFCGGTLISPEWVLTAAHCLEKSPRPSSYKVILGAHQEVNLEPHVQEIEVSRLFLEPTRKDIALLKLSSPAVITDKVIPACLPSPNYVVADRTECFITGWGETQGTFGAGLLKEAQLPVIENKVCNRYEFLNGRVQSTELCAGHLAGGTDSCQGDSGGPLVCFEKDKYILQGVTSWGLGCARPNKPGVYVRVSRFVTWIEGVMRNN
T3 sequence (P00747 97-580 partner limits assumed, species assumed): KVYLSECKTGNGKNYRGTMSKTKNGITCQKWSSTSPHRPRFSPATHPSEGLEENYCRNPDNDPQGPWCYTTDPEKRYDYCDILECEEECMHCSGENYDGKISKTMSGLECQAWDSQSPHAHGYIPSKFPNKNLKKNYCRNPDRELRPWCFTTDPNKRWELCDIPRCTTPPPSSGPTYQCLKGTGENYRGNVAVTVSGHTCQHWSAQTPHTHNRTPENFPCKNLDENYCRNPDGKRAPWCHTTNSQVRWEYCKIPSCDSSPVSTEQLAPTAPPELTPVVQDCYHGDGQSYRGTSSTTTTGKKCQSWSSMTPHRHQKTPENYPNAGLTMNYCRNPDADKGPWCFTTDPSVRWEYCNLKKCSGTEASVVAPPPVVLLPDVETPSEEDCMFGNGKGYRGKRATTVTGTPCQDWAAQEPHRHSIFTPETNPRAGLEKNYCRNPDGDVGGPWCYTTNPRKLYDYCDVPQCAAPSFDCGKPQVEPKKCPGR

`N=C(N)NCCC[C@@H](C=O)NC(=O)[C@@H]1CCCN1C(=O)[C@H](N)CCCCNC(=O)Cc1ccccc1` [Example 9, N-ε-phenylacetyl-D-lysyl-L-prolyl-L-argininal sulfate] (H-[dK](PhAc)-Pro-Arg-aldehyde): the IC50 on human plasma kallikrein was found to be 200 nM; at trypsin, 68 nM; on plasmin, 2600 nM; at human factor Xa, 15 µM; on urokinase it was 83 µM; at thrombin it was 930 nM.

Values taken from patent US5153176A, “Tripeptide derivatives and protease inhibitor composition comprising the same” (Nitto Boseki Co., Ltd., priority 1990, dated 1992).
